Experimental data from US9763445B2, “Safened herbicidal compositions comprising a pyridine carboxylic acid herbicide” (Dow AgroSciences, LLC, priority 2014, dated 2017).

Experiments:
[1] = system: kochia (KCHSC); assay: Postemergence greenhouse trial, % visual injury on kochia; assay type: in vivo, Kochia scoparia; details: KCHSC; for % visual injury, Ob: CQC-m 0 g/ha
Procedure: (§1) Seeds of the desired test plant species were planted in Sun Gro MetroMix® 306 planting mixture, which typically has a pH of 6.0 to 6.8 and an organic matter content of about 30 percent, in plastic pots with a surface area of 103.2 square centimeters (cm^2). When required to ensure good germination and healthy plants, a fungicide treatment and/or other chemical or physical treatment was applied. The plants were grown for 7-36 days (d) in a greenhouse with an approximate 14-hour (h) photoperiod which was maintained at about 23° C. during the day and 22° C. during the night. Nutrients and water were added on a regular basis and supplemental lighting was provided with overhead metal halide 1000-Watt lamps as necessary. The plants were employed for testing when they reached the second or third true leaf stage.
(§2) Weighed amounts of technical material were dissolved in a volume of 97:3 volume per volume (v/v) acetone/dimethyl sulfoxide (DMSO) to stock solutions. […] The concentrated stock solutions were diluted with an aqueous mixture of 1.5% v/v of Agri-dex crop oil concentrate to provide the appropriate application rates. Compound requirements are based upon a 12 milliliter (mL) application volume at a rate of 187 liters per hectare (L/ha). Stocks solutions of the safeners were prepared following the same procedure. Spray solutions of the safeners and experimental compound mixtures were prepared by adding the stock solutions to the appropriate amount of dilution solution to form a 12 mL spray solution in two-way combinations. Formulated compounds were applied to the plant material with an overhead Mandel track sprayer equipped with 8002E nozzles calibrated to deliver 187 L/ha over an application area of 0.503 square meters (m^2) at a spray height of 18 inches (43 centimeters (cm)) above average plant canopy. Control plants were sprayed in the same manner with the solvent blank. All herbicide application (component a) rates are in g ae/ha and all safener (component b) rates are in g ai/ha.
(§3) The treated plants and control plants were placed in a greenhouse as described above and watered by sub-irrigation to prevent wash-off of the test compounds. After 20-22 d, the condition of the test plants as compared with that of the control plants was determined visually and scored on a scale of 0 to 100 percent where 0 corresponds to no injury and 100 corresponds to complete kill. […] Colby's equation was used to determine the herbicidal effects expected from the mixtures. […]

[2] = system: bird's-eye speedwell (VERPE); assay: Postemergence greenhouse trial, % visual injury on bird's-eye speedwell; assay type: in vivo, Veronica persica; details: VERPE; for % visual injury, Ob: CQC-m 0 g/ha
Procedure: as §1, §2, §3

[3] = system: wild mustard (SINAR); assay: Postemergence greenhouse trial, % visual injury on wild mustard; assay type: in vivo, Sinapis arvensis; details: SINAR; for % visual injury, Ob: CQC-m 0 g/ha
Procedure: as §1, §2, §3

[4] = system: common poppy (PAPRH); assay: Postemergence greenhouse trial, % visual injury on common poppy; assay type: in vivo, Papaver rhoeas; details: PAPRH; for % visual injury, Ob: CQC-m 0 g/ha
Procedure: as §1, §2, §3

[5] = system: winter rape (BRSNW); assay: Postemergence greenhouse trial, % visual injury on winter rape; assay type: in vivo, Brassica napus; details: BRSNW, CQC-m 0 g/ha
Outline: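 Plants at second or third true leaf stage, greenhouse-grown (14 h photoperiod, ~23/22° C.), sprayed postemergence with compounds alone or with safener cloquintocet-mexyl in 1.5% v/v Agri-dex crop oil at 187 L/ha. Visual injury scored 0–100% versus solvent-blank controls after 20-22 d; expected mixture effects by Colby's equation.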

[6] = system: pigweed (AMARE); assay: Postemergence greenhouse trial, % visual injury on pigweed; assay type: in vivo, Amaranthus retroflexus; details: AMARE, CQC-m 0 g/ha
Outline: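 Postemergence greenhouse spray (187 L/ha, 1.5% v/v Agri-dex in water, acetone/DMSO stocks) on plants at second–third true leaf stage, ~23/22 °C, 14 h photoperiod; herbicides in g ae/ha, safener cloquintocet-mexyl in g ai/ha. Visual injury 0–100% versus solvent-blank controls after 20–22 d; Colby's equation gave expected mixture effects.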

[7] = compound 8 4.380 + CQC-m 0 g/ha

Question: How did the “% visual injury, observed (Ob)” value [1, 7] turn out when `COC(=O)c1nc(-c2ccc3cc[nH]c3c2F)c(F)c(N)c1Cl` [compound 8] was run?
Answer: 69%

Question: What about the “% visual injury, observed (Ob)” value ([1]; compound 8 8.75 + CQC-m 0 g/ha) of the same molecule?
Answer: 77%

Question: What about the “% visual injury, observed (Ob)” value ([1]; compound 8 17.5 + CQC-m 0 g/ha) of the same molecule?
Answer: 81%

Question: And the “% visual injury, observed (Ob)” value ([1]; compound 8 35 + CQC-m 0 g/ha)?
Answer: 95%

Question: And the “% visual injury, observed (Ob)” value ([1]; compound 8 70 + CQC-m 0 g/ha)?
Answer: 95%

Question: What about the “% visual injury, observed (Ob)” value [2, 7] of the same molecule?
Answer: 83%

Question: And the “% visual injury, observed (Ob)” value ([2]; compound 8 8.75 + CQC-m 0 g/ha)?
Answer: 92%

Question: What about the “% visual injury, observed (Ob)” value ([2]; compound 8 17.5 + CQC-m 0 g/ha) of the same molecule?
Answer: 96%

Question: And the “% visual injury, observed (Ob)” value ([2]; compound 8 35 + CQC-m 0 g/ha)?
Answer: 98%

Question: And the “% visual injury, observed (Ob)” value ([2]; compound 8 70 + CQC-m 0 g/ha)?
Answer: 100%

Question: What about the “% visual injury, observed (Ob)” value [3, 7] of the same molecule?
Answer: 76%

Question: And the “% visual injury, observed (Ob)” value ([3]; compound 8 8.75 + CQC-m 0 g/ha)?
Answer: 82%

Question: What about the “% visual injury, observed (Ob)” value ([3]; compound 8 17.5 + CQC-m 0 g/ha) of the same molecule?
Answer: 96%

Question: What about the “% visual injury, observed (Ob)” value ([3]; compound 8 35 + CQC-m 0 g/ha) of the same molecule?
Answer: 99%

Question: What about the “% visual injury, observed (Ob)” value ([3]; compound 8 70 + CQC-m 0 g/ha) of the same molecule?
Answer: 98%

Question: And the “% visual injury, observed (Ob)” value [4, 7]?
Answer: 97%

Question: What about the “% visual injury, observed (Ob)” value ([4]; compound 8 8.75 + CQC-m 0 g/ha) of the same molecule?
Answer: 99%

Question: What about the “% visual injury, observed (Ob)” value ([4]; compound 8 17.5 + CQC-m 0 g/ha) of the same molecule?
Answer: 100%

Question: What about the “% visual injury, observed (Ob)” value ([4]; compound 8 35 + CQC-m 0 g/ha) of the same molecule?
Answer: 100%

Question: What about the “% visual injury, observed (Ob)” value ([4]; compound 8 70 + CQC-m 0 g/ha) of the same molecule?
Answer: 100%

Question: With `COC(=O)c1nc(-c2ccc3cc[nH]c3c2F)c(F)c(N)c1OC` [compound 12] as the molecule, how does the pest or weed control at 4.38 g/ha ([1]; Bassia scoparia, post-emergence, compound 4.380 g/ha, CQC-m 0, read-out: % visual injury, Ob) read?
Answer: 15%

Question: And the pest or weed control at 8.75 g/ha ([1]; Bassia scoparia, post-emergence, compound 8.75 g/ha, CQC-m 0, read-out: % visual injury, Ob)?
Answer: 62%

Question: What about the pest or weed control at 17.5 g/ha ([1]; Bassia scoparia, post-emergence, compound 17.5 g/ha, CQC-m 0, read-out: % visual injury, Ob) of the same molecule?
Answer: 82%

Question: And the pest or weed control at 35 g/ha ([1]; Bassia scoparia, post-emergence, compound 35 g/ha, CQC-m 0, read-out: % visual injury, Ob)?
Answer: 95%

Question: What about the pest or weed control at 70 g/ha ([1]; Bassia scoparia, post-emergence, compound 70 g/ha, CQC-m 0, read-out: % visual injury, Ob) of the same molecule?
Answer: 95%

Question: What about the pest or weed control at 4.38 g/ha ([4]; Papaver rhoeas, post-emergence, compound 4.380 g/ha, CQC-m 0, read-out: % visual injury, Ob) of the same molecule?
Answer: 90%

Question: And the pest or weed control at 8.75 g/ha ([4]; Papaver rhoeas, post-emergence, compound 8.75 g/ha, CQC-m 0, read-out: % visual injury, Ob)?
Answer: 93%

Question: What about the pest or weed control at 17.5 g/ha ([4]; Papaver rhoeas, post-emergence, compound 17.5 g/ha, CQC-m 0, read-out: % visual injury, Ob) of the same molecule?
Answer: 95%

Question: And the pest or weed control at 35 g/ha ([4]; Papaver rhoeas, post-emergence, compound 35 g/ha, CQC-m 0, read-out: % visual injury, Ob)?
Answer: 100%

Question: What about the pest or weed control at 70 g/ha ([4]; Papaver rhoeas, post-emergence, compound 70 g/ha, CQC-m 0, read-out: % visual injury, Ob) of the same molecule?
Answer: 100%

Question: What does the source list for `COc1c(C(=O)O)nc(-c2ccc3cc[nH]c3c2F)c(F)c1N` [compound 13]?
Answer: % visual injury, Ob ([5]; compound 4.375 g/ha): 100%; % visual injury, Ob ([5]; compound 8.75 g/ha): 100%; % visual injury, Ob ([5]; compound 17.5 g/ha): 100%; % visual injury, Ob ([5]; compound 35 g/ha): 100%; % visual injury, Ob ([5]; compound 70 g/ha): 100%; % visual injury, Ob ([1]; compound 4.375 g/ha): 55%; % visual injury, Ob ([1]; compound 8.75 g/ha): 84%; % visual injury, Ob ([1]; compound 17.5 g/ha): 89%; % visual injury, Ob ([1]; compound 35 g/ha): 92%; % visual injury, Ob ([1]; compound 70 g/ha): 93%; % visual injury, Ob ([2]; compound 4.375 g/ha): 85%; % visual injury, Ob ([2]; compound 8.75 g/ha): 93%; % visual injury, Ob ([2]; compound 17.5 g/ha): 98%; % visual injury, Ob ([2]; compound 35 g/ha): 98%; % visual injury, Ob ([2]; compound 70 g/ha): 100%; % visual injury, Ob ([3]; compound 4.375 g/ha): 95%; % visual injury, Ob ([3]; compound 8.75 g/ha): 100%; % visual injury, Ob ([3]; compound 17.5 g/ha): 100%; % visual injury, Ob ([3]; compound 35 g/ha): 100%; % visual injury, Ob ([3]; compound 70 g/ha): 100%; % visual injury, Ob ([4]; compound 4.375 g/ha): 90%; % visual injury, Ob ([4]; compound 8.75 g/ha): 100%; % visual injury, Ob ([4]; compound 17.5 g/ha): 100%; % visual injury, Ob ([4]; compound 35 g/ha): 100%; % visual injury, Ob ([4]; compound 70 g/ha): 100%

Question: `Nc1cc(-c2ccc3cc[nH]c3c2F)nc(C(=O)O)c1Cl` [compound 15] was tested. Which “% visual injury, Ob” value ([5]; compound 4.375 g/ha) did it give?
Answer: 40%

Question: What about the “% visual injury, Ob” value ([5]; compound 8.75 g/ha) of the same molecule?
Answer: 40%

Question: And the “% visual injury, Ob” value ([5]; compound 17.5 g/ha)?
Answer: 50%

Question: And the “% visual injury, Ob” value ([5]; compound 35 g/ha)?
Answer: 70%

Question: What about the “% visual injury, Ob” value ([5]; compound 70 g/ha) of the same molecule?
Answer: 60%

Question: What about the “% visual injury, Ob” value ([6]; compound 4.375 g/ha) of the same molecule?
Answer: 70%

Question: And the “% visual injury, Ob” value ([6]; compound 8.75 g/ha)?
Answer: 100%

Question: And the “% visual injury, Ob” value ([6]; compound 17.5 g/ha)?
Answer: 100%

Question: And the “% visual injury, Ob” value ([6]; compound 35 g/ha)?
Answer: 100%

Question: And the “% visual injury, Ob” value ([1]; compound 4.375 g/ha)?
Answer: 10%

Question: What about the “% visual injury, Ob” value ([1]; compound 8.75 g/ha) of the same molecule?
Answer: 10%

Question: And the “% visual injury, Ob” value ([1]; compound 17.5 g/ha)?
Answer: 50%

Question: And the “% visual injury, Ob” value ([1]; compound 35 g/ha)?
Answer: 60%

Question: What about the “% visual injury, Ob” value ([1]; compound 70 g/ha) of the same molecule?
Answer: 75%

Question: What about the “% visual injury, Ob” value ([2]; compound 4.375 g/ha) of the same molecule?
Answer: 85%

Question: What about the “% visual injury, Ob” value ([2]; compound 8.75 g/ha) of the same molecule?
Answer: 85%

Question: What about the “% visual injury, Ob” value ([2]; compound 17.5 g/ha) of the same molecule?
Answer: 90%

Question: And the “% visual injury, Ob” value ([2]; compound 35 g/ha)?
Answer: 93%

Question: What about the “% visual injury, Ob” value ([2]; compound 70 g/ha) of the same molecule?
Answer: 95%

Question: And the “% visual injury, Ob” value ([3]; compound 4.375 g/ha)?
Answer: 93%

Question: And the “% visual injury, Ob” value ([3]; compound 8.75 g/ha)?
Answer: 100%

Question: And the “% visual injury, Ob” value ([3]; compound 17.5 g/ha)?
Answer: 100%

Question: And the “% visual injury, Ob” value ([3]; compound 35 g/ha)?
Answer: 100%

Question: What about the “% visual injury, Ob” value ([3]; compound 70 g/ha) of the same molecule?
Answer: 100%

Question: What about the “% visual injury, Ob” value ([4]; compound 4.375 g/ha) of the same molecule?
Answer: 90%

Question: And the “% visual injury, Ob” value ([4]; compound 8.75 g/ha)?
Answer: 100%

Question: What about the “% visual injury, Ob” value ([4]; compound 17.5 g/ha) of the same molecule?
Answer: 100%

Question: And the “% visual injury, Ob” value ([4]; compound 35 g/ha)?
Answer: 100%
